Active and inactive are the calls of the source. No cut-off for these calls is given here.
What was measured:
[1] = Cytotoxicity against Sprague-Dawley rat cardiac fibroblast incubated for 24 hrs by MTT assay; type: toxicity, cell-based, Fibroblast of cardiac tissue; details: cardiac fibroblasts
DCN1-like protein 4 = biological target: T1, DCN1-like protein 4 (Homo sapiens, UniProt Q92564); experiment: Binding affinity to DCN4 (unknown origin) assessed as inhibitory constant
T1 sequence (Q92564 whole entry): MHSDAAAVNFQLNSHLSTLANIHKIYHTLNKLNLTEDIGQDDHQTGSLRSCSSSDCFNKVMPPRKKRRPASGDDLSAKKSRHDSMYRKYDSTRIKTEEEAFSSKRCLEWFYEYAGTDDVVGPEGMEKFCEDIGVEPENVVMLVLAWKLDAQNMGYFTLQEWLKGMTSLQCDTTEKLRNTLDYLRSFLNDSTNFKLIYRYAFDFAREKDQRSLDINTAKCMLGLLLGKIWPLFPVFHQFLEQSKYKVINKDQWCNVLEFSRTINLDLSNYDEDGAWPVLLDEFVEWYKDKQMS

DCN1-like protein 5 = biological target: T2, DCN1-like protein 5 (Homo sapiens, UniProt Q9BTE7); experiment: Binding affinity to DCN5 (unknown origin) assessed as inhibitory constant
T2 sequence (Q9BTE7 whole entry): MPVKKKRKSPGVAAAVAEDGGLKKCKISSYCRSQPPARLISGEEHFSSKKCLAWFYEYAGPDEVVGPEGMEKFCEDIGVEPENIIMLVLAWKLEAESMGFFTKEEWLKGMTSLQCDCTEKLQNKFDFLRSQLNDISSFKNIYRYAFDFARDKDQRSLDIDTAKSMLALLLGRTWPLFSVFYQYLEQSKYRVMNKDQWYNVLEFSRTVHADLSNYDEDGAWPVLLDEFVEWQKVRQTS

Cardiac fibroblast [2] = experiment: Inhibition of intracellular DCN1 in Sprague-Dawley rat cardiac fibroblast measured between 42 to 62 degC at 10 uM incubated for 5 hrs by cellular thermal shift assay; type: cell-based
[3] = Cytotoxicity against Sprague-Dawley rat cardiac fibroblast by MTT assay; type: toxicity, cell-based, Fibroblast of cardiac tissue; details: cardiac fibroblasts
Cardiac fibroblast [4] = experiment: Inhibition of DCN1 in Ang II-treated Sprague-Dawley rat cardiac fibroblast assessed as inhibited cell migration at 0.1 to 3 uM incubated for 24 hrs stained with crystal violet by transwell migration assay; type: cell-based; details: Sprague-Dawle, dose 0.1-3 µM
[5] = test system: Fibroblast of cardiac tissue; experiment: Reversal of Ang II-induced increase in cullin 3 secretion in mouse cardiac fibroblast at 1 uM preincubated for 2 hrs followed by Ang-II stimulation and further incubated for 24 hrs by western blot analysis; type: functional, cell-based; details: time 26.0 hrs
[6] = test system: Fibroblast of cardiac tissue; experiment: Reversal of Ang II-induced decrease in Nrf2 secretion in mouse cardiac fibroblast at 1 uM preincubated for 2 hrs followed by Ang-II stimulation and further incubated for 24 hrs by western blot analysis; type: functional, cell-based; details: time 26.0 hrs
[7] = test system: Fibroblast of cardiac tissue; experiment: Effect on Ang II-induced in Cul5 neddylation in mouse cardiac fibroblast at 1 uM preincubated for 2 hrs followed by Ang-II stimulation and further incubated for 24 hrs by western blot analysis; type: functional, cell-based; details: time 26.0 hrs
[8] = test system: Fibroblast of cardiac tissue; experiment: Effect on Cul5 neddylation in mouse cardiac fibroblast at 1 uM preincubated for 2 hrs by Western blot analysis; type: functional, cell-based
[9] = Toxicity in 24 hr starved C57BL/6 mouse assessed as change in body weight at 2 g/Kg administered via gavage measured upto 2 weeks; details: in vivo, po, 2000 mg/kg
[10] = Toxicity in 24 hr starved C57BL/6 mouse assessed as pathological change in spleen at 2 g/Kg administered via gavage measured after 2 weeks by H and E staining based histopathological analysis; type: tissue-based; details: in vivo, po, 2000 mg/kg
[11] = Toxicity in 24 hr starved C57BL/6 mouse assessed as pathological change in lungs at 2 g/Kg administered via gavage measured after 2 weeks by H and E staining based histopathological analysis; details: in vivo, po, 2000 mg/kg
[12] = Toxicity in 24 hr starved C57BL/6 mouse assessed as pathological change in kidney at 2 g/Kg administered via gavage measured after 2 weeks by H and E staining based histopathological analysis; type: tissue-based; details: in vivo, po, 2000 mg/kg
DCN1-like protein 1 = DCN1-like protein 1 (Homo sapiens, UniProt Q96GG9)
DCN1-like protein 1, sequence (Q96GG9 whole entry, looked up): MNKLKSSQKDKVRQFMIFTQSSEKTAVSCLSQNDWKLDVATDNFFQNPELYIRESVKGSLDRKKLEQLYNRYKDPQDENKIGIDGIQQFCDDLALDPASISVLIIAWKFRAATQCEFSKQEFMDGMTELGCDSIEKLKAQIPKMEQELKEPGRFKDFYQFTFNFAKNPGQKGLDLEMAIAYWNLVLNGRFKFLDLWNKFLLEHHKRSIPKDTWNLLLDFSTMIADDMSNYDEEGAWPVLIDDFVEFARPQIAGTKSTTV
Description: Binding affinity to DCN1 (unknown origin) assessed as change in entropy by MM-PBSA method

## COc1cc(-c2nc(SCc3ccc(Cl)cc3)nc(Sc3nnnn3C)c2C#N)cc(OC)c1OC
[1]
  IC50 at 24 h: 27.3 µM
DCN1-like protein 4
  Ki: 22.4 µM
DCN1-like protein 5
  Ki: 28.9 µM
Cardiac fibroblast [2]
  inhibition: Active
[3]
  IC50: 27.3 µM
Cardiac fibroblast [4]
  inhibition: Active
[5]
  Activity: Active
[6]
  Activity: Active
[7]
  Activity: Active
[8]
  Activity: Active
[9]
  Activity: Non-Toxic
[10]
  Activity: Non-Toxic
[11]
  Activity: Non-Toxic
[12]
  Activity: Non-Toxic
DCN1-like protein 1
  -TdeltaS: 11.2 kcal/mol

Source: ChEMBL document CHEMBL5042502, “Discovery of Potent and Selective 2-(Benzylthio)pyrimidine-based DCN1-UBC12 Inhibitors for Anticardiac Fibrotic Effects” (J Med Chem, 2022)
